Measured values taken from ChEMBL document CHEMBL6120994, “Unravelling the potential of natural chelating agents in the control of Staphylococcus aureus and Pseudomonas aeruginosa biofilms” (Eur J Med Chem, 2025).
Converted amounts (≈) assume the structure as drawn.

Tests used:
[1] = system: Staphylococcus aureus; test: Antibacterial activity against Staphylococcus aureus ATCC 6538 assessed as inhibition of bacterial growth measured after 24 hrs by broth microdilution method; type: functional
[2] = system: Pseudomonas aeruginosa; test: Antibiofilm activity against Pseudomonas aeruginosa PAK01 biofilm assessed as reduction of bacterial biomass by crystal violet staining based analysis; type: functional

Structure (SMILES): O=c1cc(CO)occ1O [KOJIC ACID]
- MIC [1]: 1400 µg/mL (≈ 9.85 mM)
- inhibition (INH) [2]: 5%
